Measured values as given in patent US20160271028A1, “NOVEL USE OF PANDURATIN DERIVATIVES OR EXTRACT OF KAEMPFERIA PANDURATA COMPRISING THE SAME” (Newtree Co., Ltd., priority 2007, published 2016).

Tests used:
MMP-1 = MMP-1 expression in fibroblasts by Western blotting and RT-PCR; format: cell-based; conditions: for expression of MMP-1 mRNAs: RT-PCR; for expression of MMP-1 proteins: Western blotting; for MMP-1 inhibition and procollagen promotion activity compared with the control substance EGCG: Western blotting and RT-PCR, covers MMP-1 and procollagen
Method: (§1) MMP-1 inhibition activity and procollagen synthesis promotion effect of the Kaempferia pandurata ethanol extract prepared in Example 1 were measured by Western blotting and reverse transcriptase-polymerase chain reaction (RT-PCR).
(§2) Specifically, proteins were extracted from cultured fibroblasts and quantitated using a protein assay reagent (Bio-Rad Laboratories Inc., Hercules, Calif., USA). For Western blotting, the proteins were heated for 3 minutes and, after cooling, transferred to a nitrocellulose membrane (Amersham International, Little Chalfont, England) through electrophoresis in 10% SDS-PAGE. The membrane was saturated with 5% skim milk in TBST (10 mM Tris, pH 7.5, 100 mM NaCl, 0.1% Tween 20). After blotting for 2 hours using primary antibodies (diluted to 1:1000), followed by washing with TBST, blotting was performed for 2 hours using secondary antibodies (diluted to 1:2000). After washing with TBST for 3 times, the blotted antibodies were analyzed using an ECL detection system (Amersham International, Little Chalfont, England).
(§3) For RT-PCR, RNAs were isolated from fibroblasts using TRIZOL (Invitrogen, USA). The isolated RNAs were quantitated using MMP-1 and procollagen primers and Taq polymerase. Specifically, RT-PCR was carried out using MMP-1 primer for 25 cycles, each cycle consisting of 30 seconds at 94° C., 1 minute at 50° C. and 1 minute at 72° C. And RT-PCR was carried out using procollagen primer for 28 cycles, each cycle consisting of 30 seconds at 94° C., 1 minute at 60° C. and 1 minute at 72° C. Then, after electrophoresis using 1% agarose gel, expression of mRNA for MMP-1 and procollagen was analyzed through ethidium bromide (EtBr) illumination.
(§4) MMP-1 inhibition activity and procollagen synthesis promotion effect of the panduratin derivatives prepared in Examples 2 through 4 were measured by Western blotting and RT-PCR in the same manner as Test Example 2-1.

fibroblasts = assay: MTT assay, cell proliferation of fibroblasts; format: cell-based
Method: MTT assay [3-(4,5-dimethylthiazol-2-yl)-2,5-diphenyltetrazolium bromide reduction method] was performed on fibroblasts to evaluate cell proliferation of the panduratin derivatives prepared in Examples 2 through 4. Epigallocatechin-3-O-gallate (EGCG), which is known to have skin wrinkle improvement effect, was selected as control substance.

procollagen = assay: Procollagen synthesis in fibroblasts by Western blotting and RT-PCR; format: cell-based; conditions: for expression of procollagen mRNAs: RT-PCR; for expression of procollagen proteins: Western blotting
Method: as §1, §2, §3, §4

c-Jun = c-Jun activity in UV-exposed fibroblasts, Western blotting; format: cell-based, Human
Method: (§5) Human skin fibroblasts (CCD-986sk, ATCC, Manassas, Va., USA) were cultured in DMEM (Gibco, Grand Island, N.Y., USA). The fibroblasts were cultured on a 10 cm Petri dish (SPL, Seoul, Korea) to a concentration of 80% and further cultured for 24 hours in serum-free culture medium. Then, the cells were cultured for 24 hours in serum-free DMEM containing the panduratin A of Example 2. After replacing the culture medium with 5 mL of phosphate-buffered saline (PBS), the cells were exposed to UV (20 mJ/cm^2). Cells that were not exposed to UV were used as negative control group, and cells treated with EGCG were used as positive control group.
(§6) The fibroblasts were lysed in RIPA buffer (Sigma-Aldrich Co., St. Louis, Mo., USA) and proteins were quantitated using a protein assay reagent (Bio-Rad Laboratories Inc., Hercules, Calif., USA). For Western blotting, the proteins were heated for 3 minutes and, after cooling, transferred to a nitrocellulose membrane (Amersham International, Little Chalfont, England) through electrophoresis in 10% SDS-PAGE. The membrane was saturated with 5% skim milk in TBST (10 mM Tris, pH 7.5, 100 mM NaCl, 0.1% Tween 20). […] After washing with TBST for 3 times, the blotted antibodies were analyzed using an ECL detection system (Amersham International, Little Chalfont, England). The detection level was measured using the software RFLPscan version 2.1. […]

p38 kinase = assay: UV-induced activation (phosphorylation) of p38 kinase in fibroblasts, Western blotting; format: cell-based, Human; conditions: CCD-986sk fibroblasts, UV 20 mJ/cm^2, 24 h pretreatment
Method: as §5
(§7) The fibroblasts were lysed in RIPA buffer (Sigma-Aldrich Co., St. Louis, Mo., USA) and proteins were quantitated using a protein assay reagent (Bio-Rad Laboratories Inc., Hercules, Calif., USA). […] After washing with TBST for 3 times, the blotted antibodies were analyzed using an ECL detection system (Amersham International, Little Chalfont, England). The detection level was measured using the software RFLPscan version 2.1.
(§8) Through this procedure, the change of activity of extracellular-regulated protein kinase (ERK), Jun-N-terminal kinase (JNK) and p38 kinase, which belong to the MAPKs, was measured.

[1] = system: extracellular-regulated protein kinase (ERK); assay: UV-induced activation (phosphorylation) of ERK in fibroblasts, Western blotting; format: cell-based, Human; conditions: CCD-986sk fibroblasts, UV 20 mJ/cm^2, 24 h pretreatment
Method: as §5, §7, §8

AP-1 = assay: Electrophoretic mobility shift assay (EMSA), DNA binding activity of AP-1; format: cell-based, Human; conditions: nuclear proteins of UV-exposed fibroblasts
Method: as §5
Electrophoretic mobility shift assay (EMSA) was performed to measure the DNA binding activity of AP-1. Specifically, the fibroblasts, which were cultured in Test Example 3-1, to which panduratin A was added and which were exposed to UV, were washed with PBS and collected. […] Gel shift assay was carried out using quantitated nuclear proteins according to the manufacturer's instructions (Gel Shift Kit System; Panomics, Fremont, Calif., USA). Then, the detected proteins were analyzed with an ECL detection system (Amersham International, Little Chalfont, England) and the detection level was measured using the software RFLPscan version 2.1.
DNA binding activity of AP-1 was determined through this procedure.

[2] = system: Jun-N-terminal kinase (JNK); assay: UV-induced activation (phosphorylation) of JNK in fibroblasts, Western blotting; format: cell-based, Human; conditions: CCD-986sk fibroblasts, UV 20 mJ/cm^2, 24 h pretreatment
Method: as §5, §7, §8

[3] = system: hairless mice (Hos: HR-1); assay: Wrinkle improvement in UV-exposed hairless mice, application on skin; format: in vivo
Method: Forty eight 6-week-old female hairless mice (Hos: HR-1) were accustomed for a week and randomly divided into 6 groups, 8 per each. The hairless mice (Hos:HR-1) were exposed to UV for 8 weeks. UV irradiation was carried out 3 times a week, from 1 MED (1 MED=50 mJ/cm^2) to 4 MED, until the end of the test. The 6 test groups were: non UV-treated group, UV-treated group, UV- and Kaempferia pandurata ethanol extract (0.1%, 0.5%)-treated group, and UV- and panduratin A (1 mM, 5 mM)-treated group. Each sample was dissolved in a mixture solvent of ethanol and polyethylene glycol (7:3, v/v) and 50 μL was applied on the back of the mice every day for 8 weeks. For the non UV-treated group and the UV-treated group, 50 μL of a mixture of ethanol and polyethylene glycol (7:3, v/v) was applied.
In order to investigate wrinkle prevention effect, skin replicas were taken using silicone polymer (SILFLO Impression Material, Flexico, England). The image files of the skin replicas were subjected to wrinkle evaluation using the computer image analysis software Skin Visiometer SV 600 (Courage+Khazaha Electronic, Kln, Germany) Rt, Rm, Rz and Ra values (Rt: the distance from the highest and lowest portions on the skin surface, Rm: the maximum Rt value of 5 measurements, Rz: the mean Rt value of 5 measurements, Ra: the arithmetic mean surface roughness) were determined.

c-Fos = c-Fos activity in UV-exposed fibroblasts, Western blotting; format: cell-based, Human
Method: as §5, §6

[4] = application on skin, 8 weeks, p<0.05

Compound	expression of MMP-1 mRNAs (MMP-1)	expression of MMP-1 proteins (MMP-1)	MMP-1 inhibition and procollagen promotion activity compared with the control substance EGCG (MMP-1)	Proliferation effect (%) (fibroblasts; 0.001 μM)	Proliferation effect (%) (fibroblasts; 0.01 μM)	Proliferation effect (%) (fibroblasts; 0.1 μM)	Proliferation effect (%) (fibroblasts; 1 μM)	Proliferation effect (%) (fibroblasts; 10 μM)	Proliferation effect (%) (fibroblasts; 50 μM)	expression of procollagen mRNAs (procollagen)	expression of procollagen proteins (procollagen)	also measured
CC(C)=CC[C@@H]1C(C)=CC[C@@H](c2ccccc2)[C@@H]1C(=O)c1c(O)cc(O)cc1O [4-Hydroxypanduratin A, 4-hydroxypanduratin A]	decrease of MMP-1 proteins and mRNAs in a concentration-dependent manner	decrease of MMP-1 proteins and mRNAs in a concentration-dependent manner	better activity than the control substance EGCG	101%	102%	109%	119%	121%	128%	increased in a concentration-dependent manner	increased in a concentration-dependent manner	
COc1cc(O)cc(O)c1C(=O)[C@@H]1[C@H](CC=C(C)C)C(C)=CC[C@H]1c1ccccc1 [Isopanduratin A, isopanduratin A]	decrease of MMP-1 proteins and mRNAs in a concentration-dependent manner	decrease of MMP-1 proteins and mRNAs in a concentration-dependent manner	better activity than the control substance EGCG	102%	102%	110%	120%	124%	130%	increased in a concentration-dependent manner	increased in a concentration-dependent manner	
COc1cc(O)c(C(=O)[C@@H]2[C@H](CC=C(C)C)C(C)=CC[C@H]2c2ccccc2)c(O)c1 [Panduratin A, panduratin A]	decrease of MMP-1 proteins and mRNAs in a concentration-dependent manner	decrease of MMP-1 proteins and mRNAs in a concentration-dependent manner	better activity than the control substance EGCG	103%	104%	111%	120%	126%	131%	increased in a concentration-dependent manner	increased in a concentration-dependent manner	c-Jun activity (c-Jun): inhibited c-Jun and c-Fos activity in a concentration-dependent manner; activation of p38 kinase (p38 kinase): suppressed in a concentration-dependent manner; activation of ERK [1]: suppressed in a concentration-dependent manner; binding of AP-1 to DNA (AP-1): inhibited binding of AP-1 to DNA in a concentration-dependent manner; activation of JNK [2]: suppressed in a concentration-dependent manner; wrinkling (skin replicas) as compared to the UV-treated group ([3]; 50 μL on the back daily for 8 weeks, extract 0.1% and 0.5%, panduratin A 1 mM and 5 mM): remarkably decreased wrinkling; Ra value (arithmetic mean surface roughness) [3, 4]: significantly decreased; Rm value (maximum Rt value of 5 measurements) [3, 4]: significantly decreased; Rt value (distance from the highest and lowest portions on the skin surface) [3, 4]: significantly decreased; Rz value (mean Rt value of 5 measurements) [3, 4]: significantly decreased; c-Fos activity (c-Fos): inhibited c-Jun and c-Fos activity in a concentration-dependent manner
Epigallocatechin-3-O-gallate [EGCG, reference compound]				102%	104%	107%	119%	120%	126%			
